# Test results taken from patent publication US4731109A, “Herbicidal 2-haloacetanilides” (Monsanto Company, priority 1982, dated 1988).
# Where two headings read alike, the source gives them in different places.
# How the values were obtained:
# Type in all cases: in vivo
# common ragweed = test: Greenhouse pre-emergence GR15/GR85 selectivity test; conditions: Table XV; for selectivity factor (GR15/GR85): in rape
# How it was run: (§1)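 Pre-emergence soil-incorporation test: seeded pans were covered with topsoil mixed with active ingredient (in solvent or as wettable powder), overhead-irrigated (0.64 cm) or not, then subirrigated. Plants were scored about 2-3 weeks after treatment. GR15/GR85 rates are in kg/ha, and selectivity factor is crop GR15 divided by weed GR85.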
# common purslane = test: as above; conditions: Table XV; for selectivity factor (GR15/GR85): in rape
# How it was run: as §1
# prickly sida = test: as above; conditions: Table XV; for selectivity factor (GR15/GR85): in rape
# How it was run: as §1
# cotton = test: as above
# Text: (§2) A good grade of top soil is placed in aluminum pans and compacted to a depth of three-eighths to one-half inch from the top of the pan. On the top of the soil is placed a number of seeds or vegetative propagules of various plant species. The soil required to level fill the pans after seeding or adding vegetative propagules is weighed into a pan. The soil and a known amount of the active ingredient applied in a solvent or as a wettable powder suspension are thoroughly mixed, and used to cover the prepared pans. After treatment, the pans are given an initial overhead irrigation of eater, equivalent to one-fourth inch (0.64 cm) rainfall, then watered by subirrigation as need to give adequate moisture for germination and growth. As an alternative procedure, the overhead irrigation may be omitted. Observations are made about 2-3 weeks after seeding and treatment.
# (§3) In the discussion and tables of data below, reference is made to herbicide application rates symbolized as "GR15 " and "GR85 "; these rates are given in kilograms per hectare (kg/ha) which are convertible into pounds per acre (lbs/A) by dividing the kg/ha rate by 1.12.
# A further guide to the effectiveness of a chemical as a selective herbicide is the "selectivity factor" ("SF") for a herbicide in given crops and weeds. The selectivity factor is a measure of the relative degree of crop safety and weed injury and is expressed in terms of the GR15 /GR85 ratio, i.e., the GR15 rate for the crop divided by the GR85 rate for the weed, both rates in kg/ha (lb/A). In the tables below, selectivity factors are shown in parenthesis following the GR85 rate for each weed; the symbol "NS" indicates "non-selective". Marginal or undetermined selectivity is indicated by a dash (--).
# Additionally, pre-emergence herbicidal data from other tests have established that compounds according to this invention also selectively suppress quackgrass, yellow nutsedge and/or other weeds in one or more of the crops cotton, peanuts, bush beans and/or rape. For example, in Table VI are presented data showing the herbicidal selectivity of the compounds of Examples 1 and 2 against quackgrass in rape and snap beans. Unless otherwise noted; greenhouse tests in Table VI and in other tables below involved herbicide treatments by soil incorporation and an initial overhead irrigation followed by subirrigation as described above.
# In one multi-crop test in the greenhouse, the compounds of Examples 1, 9, and 10 were tested against yellow nutsedge in cotton, soybeans, corn and rice; each compound was non-selective with respect to yellow nutsedge in rice. However, markedly high selectivities for yellow nutsedge in cotton, soybeans and corn were shown for each of the compounds in the test; the respective GR15 and GR85 rates for these compounds are shown in Table XII selectivity factors are shown in parenthesis after each crop.
# Bush Bean = test: Field pre-emergence selectivity test; conditions: 1008 h, 6 weeks, read-out: Percent Inhibition; for inhibition at 560 g/ha: 0.56 Kg/Ha; for inhibition at 1120 g/ha: 1.12 Kg/Ha; for inhibition at 2240 g/ha: 2.24 Kg/Ha; for inhibition at 4480 g/ha: 4.48 Kg/Ha
# Method: (§4) The compound of Examples 1 and 2 was also tested in the field to determine its pre-emergence selectivity against foxtail (spp), barnyardgrass, wild proso millet, smartweed, lambsquarters and pigweed in a plurality of crops; the data (representing three replicate runs) are shown in Table VII for both surface application (S.A.) and soil incorporation (PPI, i.e., preplant incorporation) of the herbicide. The seeds were planted in a fine seedbed of silt loam of intermediate moisture. The seeds were planted at a depth of two inches (5.08 cm). First rainfall (0.2"; 0.51 cm) occurred the day following treatment, the second rain (0.25"; […]) two days after treatment; cumulative rainfall 22 days after treatment was 1.8" (4.57 cm). Observations were made 6 weeks after treatment.
# foxtail (spp) = test: Field pre-emergence selectivity test; conditions: Setaria, 1008 h, 6 weeks, read-out: Percent Inhibition; for inhibition at 560 g/ha: 0.56 Kg/Ha; for inhibition at 1120 g/ha: 1.12 Kg/Ha; for inhibition at 2240 g/ha: 2.24 Kg/Ha; for inhibition at 4480 g/ha: 4.48 Kg/Ha
# Method: as §4
# pigweed = test: Field pre-emergence selectivity test; conditions: Amaranthus retroflexus, 1008 h, 6 weeks, read-out: Percent Inhibition; for inhibition at 560 g/ha: 0.56 Kg/Ha; for inhibition at 1120 g/ha: 1.12 Kg/Ha
# Method: as §4
# Field Corn = test: Field pre-emergence selectivity test; conditions: Zea mays, 1008 h, 6 weeks, read-out: Percent Inhibition; for inhibition at 560 g/ha: 0.56 Kg/Ha; for inhibition at 1120 g/ha: 1.12 Kg/Ha; for inhibition at 2240 g/ha: 2.24 Kg/Ha; for inhibition at 4480 g/ha: 4.48 Kg/Ha
# Method: as §4
# rape = test: Field pre-emergence selectivity test; conditions: 1008 h, 6 weeks, read-out: Percent Inhibition; for inhibition at 560 g/ha: 0.56 Kg/Ha; for inhibition at 1120 g/ha: 1.12 Kg/Ha; for inhibition at 2240 g/ha: 2.24 Kg/Ha; for inhibition at 4480 g/ha: 4.48 Kg/Ha
# Method: as §4
# Barnyardgrass = test: Field pre-emergence selectivity test; conditions: Echinochloa crus-galli, 1008 h, 6 weeks, read-out: Percent Inhibition; for inhibition at 560 g/ha: 0.56 Kg/Ha; for inhibition at 1120 g/ha: 1.12 Kg/Ha; for inhibition at 2240 g/ha: 2.24 Kg/Ha; for inhibition at 4480 g/ha: 4.48 Kg/Ha
# Method: as §4
# wild proso millet = test: Field pre-emergence selectivity test; conditions: 1008 h, 6 weeks, read-out: Percent Inhibition; for inhibition at 560 g/ha: 0.56 Kg/Ha; for inhibition at 1120 g/ha: 1.12 Kg/Ha; for inhibition at 2240 g/ha: 2.24 Kg/Ha; for inhibition at 4480 g/ha: 4.48 Kg/Ha
# Method: as §4
# snap beans = test: Greenhouse pre-emergence GR15/GR85 selectivity test; conditions: Table VI
# Text: as §2, §3
# A further guide to the effectiveness of a chemical as a selective herbicide is the "selectivity factor" ("SF") for a herbicide in given crops and weeds. […]
smiles,measurement,setting,value
"Cc1cccc(C(F)(F)F)c1N(COC(C)C)C(=O)CCl [Example 4, N--(isopropoxymethyl)-2'-trifluoromethyl-6'-methyl-2-chloroacetanilide]",GR85 Rate,common ragweed,1.03 Kg/Ha
same,selectivity factor (GR15/GR85),common ragweed,> 1.1
same,GR85 Rate,common purslane,> 1.12 Kg/Ha
same,GR85 Rate,prickly sida,> 1.12 Kg/Ha
"CCOCN(C(=O)CCl)c1c(CC)cccc1C(F)(F)F [Example 9, N--(ethoxymethyl)-2'-trifluoromethyl-6'-ethyl-2-chloroacetanilide]",GR85 Rate,common ragweed,> 1.12 Kg/Ha
same,selectivity factor (GR15/GR85),common ragweed,NS (non-selective)
same,GR85 Rate,common purslane,0.78 Kg/Ha
same,selectivity factor (GR15/GR85),common purslane,1.3
same,GR85 Rate,prickly sida,> 1.12 Kg/Ha
same,selectivity factor (GR15/GR85),prickly sida,NS (non-selective)
same,GR15,cotton; Table XII,2.5 Kg/Ha
same,GR15,cotton; cotton/yellow nutsedge,0.7 kg/ha
"CCCOCN(C(=O)CCl)c1c(C)cccc1C(F)(F)F [Example 3, N--(n-propoxymethyl)-2'-trifluoromethyl-6'-methyl-2-chloroacetanilide]",GR85 Rate,common ragweed,0.49 Kg/Ha
same,selectivity factor (GR15/GR85),common ragweed,1.8
same,GR85 Rate,common purslane,0.70 Kg/Ha
same,selectivity factor (GR15/GR85),common purslane,1.3
same,GR85 Rate,prickly sida,> 1.12 Kg/Ha
same,selectivity factor (GR15/GR85),prickly sida,NS (non-selective)
"CCCOCN(C(=O)CCl)c1c(CC)cccc1C(F)(F)F [Example 10, N--(n-propoxymethyl)-2'-trifluoromethyl-6'-ethyl-2-chloroacetanilide]",GR85 Rate,common ragweed,> 1.12 Kg/Ha
same,GR85 Rate,common purslane,> 1.12 Kg/Ha
same,GR85 Rate,prickly sida,> 1.12 Kg/Ha
same,GR15,cotton; Table XII,2.8 Kg/Ha
"Cc1cccc(C(F)(F)F)c1N(COCC(C)C)C(=O)CCl [Example 5, N--(isobutoxymethyl)-2'-trifluoromethyl-6'-methyl-2-chloroacetanilide]",GR85 Rate,common ragweed,0.98 Kg/Ha
same,selectivity factor (GR15/GR85),common ragweed,> 1.1
same,GR85 Rate,common purslane,> 1.12 Kg/Ha
same,GR85 Rate,prickly sida,> 1.12 Kg/Ha
"CC(C)OCN(C(=O)CCl)c1ccccc1C(F)(F)F [Example 2, N--(isopropoxymethyl)-2'-trifluoromethyl-2-chloroacetanilide]",inhibition at 560 g/ha,Bush Bean; P.P.I.,5%
same,inhibition at 1120 g/ha,Bush Bean; P.P.I.,13%
same,inhibition at 2240 g/ha,Bush Bean; P.P.I.,22%
same,inhibition at 4480 g/ha,Bush Bean; P.P.I.,63%
same,inhibition at 560 g/ha,Bush Bean; S.A.,0%
same,inhibition at 1120 g/ha,Bush Bean; S.A.,0%
same,inhibition at 2240 g/ha,Bush Bean; S.A.,5%
same,inhibition at 4480 g/ha,Bush Bean; S.A.,33%
same,inhibition at 560 g/ha,foxtail (spp); P.P.I.,77%
same,inhibition at 1120 g/ha,foxtail (spp); P.P.I.,78%
same,inhibition at 2240 g/ha,foxtail (spp); P.P.I.,87%
same,inhibition at 4480 g/ha,foxtail (spp); P.P.I.,100%
same,inhibition at 560 g/ha,foxtail (spp); S.A.,50%
same,inhibition at 1120 g/ha,foxtail (spp); S.A.,85%
same,inhibition at 2240 g/ha,foxtail (spp); S.A.,90%
same,inhibition at 4480 g/ha,foxtail (spp); S.A.,97%
same,inhibition at 560 g/ha,pigweed; P.P.I.,33%
same,inhibition at 1120 g/ha,pigweed; P.P.I.,85%
same,inhibition at 2240 g/ha,"pigweed; P.P.I., 2.24 Kg/Ha",85%
same,inhibition at 4480 g/ha,"pigweed; P.P.I., 4.48 Kg/Ha",88%
same,inhibition at 560 g/ha,pigweed; S.A.,0%
same,inhibition at 1120 g/ha,pigweed; S.A.,0%
same,inhibition at 560 g/ha,Field Corn; P.P.I.,0%
same,inhibition at 1120 g/ha,Field Corn; P.P.I.,0%
same,inhibition at 2240 g/ha,Field Corn; P.P.I.,0%
same,inhibition at 4480 g/ha,Field Corn; P.P.I.,13%
same,inhibition at 560 g/ha,Field Corn; S.A.,0%
same,inhibition at 1120 g/ha,Field Corn; S.A.,0%
same,inhibition at 2240 g/ha,Field Corn; S.A.,0%
same,inhibition at 4480 g/ha,Field Corn; S.A.,10%
same,inhibition at 560 g/ha,rape; P.P.I.,0%
same,inhibition at 1120 g/ha,rape; P.P.I.,15%
same,inhibition at 2240 g/ha,rape; P.P.I.,27%
same,inhibition at 4480 g/ha,rape; P.P.I.,35%
same,inhibition at 560 g/ha,rape; S.A.,0%
same,inhibition at 1120 g/ha,rape; S.A.,5%
same,inhibition at 2240 g/ha,rape; S.A.,0%
same,inhibition at 4480 g/ha,rape; S.A.,30%
same,inhibition at 560 g/ha,Barnyardgrass; P.P.I.,85%
same,inhibition at 1120 g/ha,Barnyardgrass; P.P.I.,88%
same,inhibition at 2240 g/ha,Barnyardgrass; P.P.I.,95%
same,inhibition at 4480 g/ha,Barnyardgrass; P.P.I.,100%
same,inhibition at 560 g/ha,Barnyardgrass; S.A.,50%
same,inhibition at 1120 g/ha,Barnyardgrass; S.A.,87%
same,inhibition at 2240 g/ha,Barnyardgrass; S.A.,90%
same,inhibition at 4480 g/ha,Barnyardgrass; S.A.,97%
same,inhibition at 560 g/ha,wild proso millet; P.P.I.,35%
same,inhibition at 1120 g/ha,wild proso millet; P.P.I.,48%
same,inhibition at 2240 g/ha,wild proso millet; P.P.I.,68%
same,inhibition at 4480 g/ha,wild proso millet; P.P.I.,87%
same,inhibition at 560 g/ha,wild proso millet; S.A.,27%
same,inhibition at 1120 g/ha,wild proso millet; S.A.,63%
same,inhibition at 2240 g/ha,wild proso millet; S.A.,75%
same,inhibition at 4480 g/ha,wild proso millet; S.A.,93%
same,GR15 Rate,snap beans,2.2 Kg/Ha
